Measured values published in ChEMBL document CHEMBL4028817, “Indole-TEMPO conjugates alleviate ischemia-reperfusion injury via attenuation of oxidative stress and preservation of mitochondrial function” (Bioorg Med Chem, 2017).
The source made the active and inactive calls. The calls are words filed in the database; no cut-off is given here.

Tests used:
Mus musculus [1] = assay: Anti-inflammatory activity in ICR mouse assessed as inhibition of xylene induced ear edema at 0.10 mmol/kg pretreated orally for 30 mins followed by xylene challenge measured after 2 hrs relative to control; type: functional; conditions: po
Mus musculus [2] = assay: Anti-inflammatory activity in xylene induced ICR mouse ear edema model assessed as edema weight at 0.10 mmol/kg, po pretreated 30 mins followed by xylene challenge measured after 2 hrs (reference value: 4.07 +/- 0.51 mg); type: functional
Mus musculus [3] = assay: Toxicity in mouse assessed as tail bleeding time at 0.50 mmol/kg, po administered 30 mins prior to tail transection measured every 30 secs (reference value: 120.5 +/- 7.9 sec); type: organism-based; conditions: in vivo
Mus musculus [4] = assay: Toxicity in mouse assessed as tail bleeding time at 0.50 mmol/kg, po administered 45 mins prior to tail transection measured every 30 secs (reference value: 119.8 +/- 8.4 sec); type: organism-based; conditions: in vivo
Mus musculus [5] = assay: Toxicity in mouse assessed as tail bleeding time at 0.50 mmol/kg, po administered 60 mins prior to tail transection measured every 30 secs (reference value: 120.4 +/- 7.9 sec); type: organism-based; conditions: in vivo
Mus musculus [6] = assay: Toxicity in mouse assessed as tail bleeding time at 0.50 mmol/kg, po administered 90 mins prior to tail transection measured every 30 secs (reference value: 119.3 +/- 7.7 sec); type: organism-based; conditions: in vivo
HUVEC = assay: Protection against simulated ischemia/reperfusion injury-induced cell death in HUVEC assessed as increase in cell viability at 30 ug/ml treated for 12 hrs under normoxic condition prior to simulated ischemia for 2 hrs followed by compound washout measured 3 hrs post reperfusion; type: functional, cell-based; conditions: Homo sapiens
Mus musculus [7] = assay: Anti-inflammatory activity in ICR mouse assessed as inhibition of xylene induced ear edema pretreated orally for 30 mins followed by xylene challenge measured after 2 hrs; type: functional
Rattus norvegicus [8] = assay: Protection against ischemia/reperfusion-induced Wistar rat intestinal injury model assessed as reduction in lipid peroxidation by measuring lipid peroxide levels at 30 mg/kg administered as bolus dose pretreated for 5 mins followed by 12 hrs reperfusion and subsequent compound addition at 10 mg/kg administered at 1 hr interval during reperfusion period measured at 1.5 to 12 hrs post reperfusion by spectrophotometric method; type: functional, organism-based
Rattus norvegicus [9] = assay: Protection against ischemia/reperfusion-induced Wistar rat intestinal injury model assessed as effect on TNFalpha levels at 30 mg/kg administered as bolus dose pretreated for 5 mins followed by 12 hrs reperfusion and subsequent compound addition at 10 mg/kg administered at 1 hr interval during reperfusion period by ELISA (reference value: 62.9 +/- 8.7 pg/ml); type: functional

SMILES | inhibition in vivo at 100 µmol/kg (Mus musculus [1]) [%] | Activity (Mus musculus [2]) [mg] | Time (Mus musculus [3]) [s] | Time (Mus musculus [4]) [s] | Time (Mus musculus [5]) [s] | Time (Mus musculus [6]) [s] | Activity (HUVEC) | inhibition (Mus musculus [7]) | Activity (Rattus norvegicus [8]) | Activity (Rattus norvegicus [9]) [pg/mL]
CC[C@@H](C)[C@@H](NC(=O)[C@@H]1Cc2c([nH]c3ccccc23)CN1C(=O)[C@@H]1Cc2c([nH]c3ccccc23)CN1)C(=O)NCc1cn(C2CC(C)(C)N([O])C(C)(C)C2)nn1 | 44.7 | 2.25 | 119.7 | 117.5 | 116.1 | 121.7 | – | – | – | –
C[C@@H](O)[C@@H](NC(=O)[C@@H]1Cc2c([nH]c3ccccc23)CN1C(=O)[C@@H]1Cc2c([nH]c3ccccc23)CN1)C(=O)NCc1cn(C2CC(C)(C)N([O])C(C)(C)C2)nn1 | 47.2 | 2.15 | 116.9 | 117.3 | 118.5 | 117.4 | – | – | – | –
CC1(C)CC(n2cc(CNC(=O)[C@@H](Cc3ccc(O)cc3)NC(=O)[C@@H]3Cc4c([nH]c5ccccc45)CN3C(=O)[C@@H]3Cc4c([nH]c5ccccc45)CN3)nn2)CC(C)(C)N1[O] | 60 | 1.63 | 117.2 | 118 | 117.5 | 118.6 | Active | Dose-dependent effect | – | –
C[C@@H](NC(=O)[C@@H]1Cc2c([nH]c3ccccc23)CN1C(=O)[C@@H]1Cc2c([nH]c3ccccc23)CN1)C(=O)NCc1cn(C2CC(C)(C)N([O])C(C)(C)C2)nn1 | 32.9 | 2.73 | 119.6 | 115.3 | 117.7 | 119.8 | – | – | – | –
CC1(C)CC(n2cc(CNC(=O)[C@@H](Cc3ccccc3)NC(=O)[C@@H]3Cc4c([nH]c5ccccc45)CN3C(=O)[C@@H]3Cc4c([nH]c5ccccc45)CN3)nn2)CC(C)(C)N1[O] | 45.9 | 2.2 | 119.4 | 119.1 | 117.6 | 119 | – | – | – | –
CC1(C)CC(n2cc(CNC(=O)[C@@H](CC(N)=O)NC(=O)[C@@H]3Cc4c([nH]c5ccccc45)CN3C(=O)[C@@H]3Cc4c([nH]c5ccccc45)CN3)nn2)CC(C)(C)N1[O] | 56.3 | 1.78 | 119.7 | 118.4 | 119.5 | 119.2 | Active | Dose-dependent effect | – | –
CC1(C)CC(n2cc(CNC(=O)[C@@H](CO)NC(=O)[C@@H]3Cc4c([nH]c5ccccc45)CN3C(=O)[C@@H]3Cc4c([nH]c5ccccc45)CN3)nn2)CC(C)(C)N1[O] | 40.5 | 2.42 | 121.1 | 119.7 | 122.5 | 118.6 | – | – | – | –
CC1(C)CC(O)CC(C)(C)N1[O] [TEMPOL] | – | – | – | – | – | – | – | – | Active | 25.2
CC(C)[C@@H](NC(=O)[C@@H]1Cc2c([nH]c3ccccc23)CN1C(=O)[C@@H]1Cc2c([nH]c3ccccc23)CN1)C(=O)NCc1cn(C2CC(C)(C)N([O])C(C)(C)C2)nn1 | 36.6 | 2.58 | 116.4 | 119.3 | 120.4 | 118.7 | – | – | – | –
CC(C)C[C@@H](NC(=O)[C@@H]1Cc2c([nH]c3ccccc23)CN1C(=O)[C@@H]1Cc2c([nH]c3ccccc23)CN1)C(=O)NCc1cn(C2CC(C)(C)N([O])C(C)(C)C2)nn1 | 47 | 2.16 | 121 | 120.7 | 119.8 | 119.1 | – | – | – | –
